# In patent publication US8916702B2 (priority 2012, dated 2014):
# System: HCV pseudoparticles (genotype 1a HCV E1 and E2 envelope, H77C isolate)
# Experiment: microbe, parasite or virus in culture
# Type: cell-based
# Settings: Hepatitis C virus, Huh-7, 48 h, HCV pseudoparticle infection of Huh7 cells, luciferase 2 days after infection; average of duplicates
row,SMILES,EC50
1,Cn1cnnc1-c1ccc(NC(=O)C(=O)NCC(C)(C)CNC(=O)c2ccc(Nc3nc(NC4(c5ccc(Cl)cc5)CC4)nc(OCC(F)(F)F)n3)cc2)cc1 [Compound 1601],0.03 nM

# Same assay, conditions: Hepatitis C virus, Huh-7, 48 h, HCV pseudoparticles (genotype 1a, H77C) in Huh7 cells; average of duplicate; luciferase 2 days after infection
row,SMILES,EC50
1,C=Cc1ccc(NC(=O)C(=O)NCC[C@H](NC(=O)c2ccc(Nc3nc(NC4(c5ccc(Cl)cc5)CC4)nc(OCC(F)(F)F)n3)cc2)C(=O)OC)cc1 [Compound 3129],0.089 nM
2,COC(=O)[C@H](CNC(=O)C(=O)Nc1ccc(C2CCCCC2)cc1)NC(=O)c1ccc(Nc2nc(NC3(c4ccc(Cl)cc4)CC3)nc(OCC(F)(F)F)n2)cc1 [Compound 3079],1.42 nM
3,CC(O)N1CCN(c2ccc(NC(=O)C(=O)NC[C@H](NC(=O)c3ccc(Nc4nc(NC5(c6ccc(Cl)cc6)CC5)nc(OCC(F)(F)F)n4)cc3)C(=O)O)cc2)CC1 (stereo partly shown) [Compound 3271],1.38 nM
4,CC(C)(CNC(=O)C(=O)Nc1ccc(CCCC(=O)O)cc1)CNC(=O)c1ccc(Nc2nc(NC3(c4ccc(Cl)cc4)CC3)nc(OCC(F)(F)F)n2)cc1 [Compound 3361],0.16 nM
5,CC(CNC(=O)C(=O)NCc1ccc(F)cc1)CNC(=O)c1ccc(Nc2nc(NC3(c4ccc(Cl)cc4)CC3)nc(OCC(F)(F)F)n2)cc1 (stereo not shown) [Compound 3346],0.067 nM

# Same assay, conditions: Hepatitis C virus, Huh-7, 48 h, HCV pseudoparticles, Huh7 cells, luciferase 2 days after infection; average of duplicates
row,SMILES,EC50
1,CCc1cccc(NC(=O)C(=O)NC[C@H](NC(=O)c2ccc(Nc3nc(NC4(c5ccc(Cl)cc5)CC4)nc(OCC(F)(F)F)n3)cc2)C(=O)Cl)c1 [Compound 3744],1.18 nM

# Same assay, conditions: Hepatitis C virus, Huh-7, 48 h, read-out: Activity (EC50 class), HCV pseudoparticle infection of Huh7 cells, luciferase 2 days after infection; EC50 expressed as class A/B
row,SMILES,EC50
1,"NC(=O)C(=O)NC[C@H](NC(=O)c1ccc(Nc2nc(NC3(c4ccc(Cl)cc4)CC3)nc(OCC(F)(F)F)n2)cc1)C(=O)O [Compound 1005, (S)-3-(2-amino-2-oxoacetamido)-2-(4-(4-(1-(4-chlorophenyl)cyclopropylamino)-6-(2,2,2-trifluoroethoxy)-1,3,5-triazin-2-ylamino)benzamido)propanoic acid]",0.01 to 10 nM
2,O=C(NC[C@H](NC(=O)c1ccc(Nc2nc(NC3(c4ccc(Cl)cc4)CC3)nc(OCC(F)(F)F)n2)cc1)C(=O)O)C(=O)NC1CCCCC1 [Compound 1174],0.01 to 10 nM
3,COC(=O)[C@H](CNC(=O)C(=O)NC1CCCC(C)C1)NC(=O)c1ccc(Nc2nc(NC3(c4ccc(Cl)cc4)CC3)nc(OCC(F)(F)F)n2)cc1 (stereo partly shown) [Compound 1059],0.01 to 10 nM
4,COC(=O)[C@H](CCNC(=O)C(=O)Nc1cncn1C)NC(=O)c1ccc(Nc2nc(NC3(c4ccc(Cl)cc4)CC3)nc(OCC(F)(F)F)n2)cc1 [Compound 1225],0.01 to 10 nM
5,CC(C)(CNC(=O)C(=O)Nc1cccc(-c2ccccc2)c1)CNC(=O)c1ccc(Nc2nc(NC3(c4ccc(Cl)cc4)CC3)nc(OCC(F)(F)F)n2)cc1 [Compound 1582],0.01 to 10 nM
6,CC1CCCCC1NC(=O)C(=O)NC[C@H](NC(=O)c1ccc(Nc2nc(NC3(c4ccc(Cl)cc4)CC3)nc(OCC(F)(F)F)n2)cc1)C(=O)O (stereo partly shown) [Compound 1089],0.01 to 10 nM
7,O=C(NCC[C@H](NC(=O)c1ccc(Nc2nc(NC3(c4ccc(Cl)cc4)CC3)nc(OCC(F)(F)F)n2)cc1)C(=O)O)C(=O)NCC1CCOCC1 [Compound 1215],0.01 to 10 nM
8,Cc1nccn1CCNC(=O)C(=O)NC[C@H](NC(=O)c1ccc(Nc2nc(NC3(c4ccc(Cl)cc4)CC3)nc(OCC(F)(F)F)n2)cc1)C(=O)O [Compound 1412],10 to 1000 nM
9,Cc1nc(-c2ccc(NC(=O)C(=O)NCC(C)(C)CNC(=O)c3ccc(Nc4nc(NC5(c6ccc(Cl)cc6)CC5)nc(OCC(F)(F)F)n4)cc3)cc2)no1 [Compound 1563],0.01 to 10 nM
10,COC(=O)[C@H](CNC(=O)C(=O)N[C@H]1C[C@H]2C3C2[C@]31C)NC(=O)c1ccc(Nc2nc(NC3(c4ccc(Cl)cc4)CC3)nc(OCC(F)(F)F)n2)cc1 (stereo partly shown) [Compound 1054],0.01 to 10 nM
11,Cn1cnnc1-c1ccc(NC(=O)C(=O)NCC(C)(C)CNC(=O)c2ccc(Nc3nc(NC4(c5ccc(Cl)cc5)CC4)nc(OCC(F)(F)F)n3)cc2)cc1 [Compound 1601],0.01 to 10 nM
12,CC1(C)CC(NC(=O)C(=O)NC[C@H](NC(=O)c2ccc(Nc3nc(NC4(c5ccc(Cl)cc5)CC4)nc(OCC(F)(F)F)n3)cc2)C(=O)O)CC(C)(C)C1 [Compound 1077],0.01 to 10 nM
13,CC(C)(CNC(=O)C(=O)Nc1ccc(C(C)(C)C)cc1)CNC(=O)c1ccc(Nc2nc(NC3(c4ccc(Cl)cc4)CC3)nc(OCC(F)(F)F)n2)cc1 [Compound 1576],0.01 to 10 nM
14,CC1CCCC(NC(=O)C(=O)NC[C@H](NC(=O)c2ccc(Nc3nc(NC4(c5ccc(Cl)cc5)CC4)nc(OCC(F)(F)F)n3)cc2)C(=O)O)C1 (stereo partly shown) [Compound 1087],0.01 to 10 nM
15,"COC(=O)[C@H](CCNC(=O)C(=O)N(C)C)NC(=O)c1ccc(Nc2nc(NC3(c4ccc(Cl)cc4)CC3)nc(OCC(F)(F)F)n2)cc1 [Compound 1011, (S)-methyl 2-(4-(4-(1-(4-chlorophenyl)cyclopropylamino)-6-(2,2,2-trifluoroethoxy)-1,3,5-triazin-2-ylamino)benzamido)-4-(2-(dimethylamino)-2-oxoacetamido)butanoate]",0.01 to 10 nM
16,COC(=O)[C@H](CCNC(=O)C(=O)NCc1cccc(F)c1)NC(=O)c1ccc(Nc2nc(NC3(c4ccc(Cl)cc4)CC3)nc(OCC(F)(F)F)n2)cc1 [Compound 1139],0.01 to 10 nM

# Same assay, conditions: Hepatitis C virus, Huh-7, 48 h, read-out: Activity (EC50 class), HCV pseudoparticles, Huh7 cells, luciferase 2 days after infection; average of duplicates
row,SMILES,EC50
1,COC(=O)[C@H](CNC(=O)C(=O)Nc1cccc(CCC(N)=O)c1)NC(=O)c1ccc(Nc2nc(NC3(c4ccc(Cl)cc4)CC3)nc(OCC(F)(F)F)n2)cc1 [Compound 3738],0.01 to 10 nM
2,COC(=O)[C@H](CNC(=O)C(=O)Nc1ccc(Oc2ccccc2)nc1)NC(=O)c1ccc(Nc2nc(NC3(c4ccc(Cl)cc4)CC3)nc(OCC(F)(F)F)n2)cc1 [Compound 3715],0.01 to 10 nM
3,O=C(NCC[C@H](NC(=O)c1ccc(Nc2nc(NC3(c4ccc(Cl)cc4)CC3)nc(OCC(F)(F)F)n2)cc1)C(=O)O)C(=O)Nc1cccc(Oc2cccnc2)c1 [Compound 3662],0.01 to 10 nM
4,CN(C)CCOc1ccc(NC(=O)C(=O)NC[C@H](NC(=O)c2ccc(Nc3nc(NC4(c5ccc(Cl)cc5)CC4)nc(OCC(F)(F)F)n3)cc2)C(=O)Cl)cn1 [Compound 3790],0.01 to 10 nM
5,Cc1csc(-c2cccc(NC(=O)C(=O)NCC[C@H](NC(=O)c3ccc(Nc4nc(NC5(c6ccc(Cl)cc6)CC5)nc(OCC(F)(F)F)n4)cc3)C(=O)O)c2)n1 [Compound 3649],0.01 to 10 nM
6,O=C(NC[C@H](NC(=O)c1ccc(Nc2nc(NC3(c4ccc(Cl)cc4)CC3)nc(OCC(F)(F)F)n2)cc1)C(=O)O)C(=O)Nc1cccc(Cc2ccccc2)c1 [Compound 3770],0.01 to 10 nM
7,CCc1cccc(NC(=O)C(=O)NC[C@H](NC(=O)c2ccc(Nc3nc(NC4(c5ccc(Cl)cc5)CC4)nc(OCC(F)(F)F)n3)cc2)C(=O)Cl)c1 [Compound 3744],0.01 to 10 nM

# Same assay, conditions: Hepatitis C virus, Huh-7, read-out: Activity (EC50 class), HCV pseudoparticles (genotype 1a, H77C) in Huh7 cells; EC50 expressed as class A/B
row,SMILES,EC50
1,C=Cc1ccc(NC(=O)C(=O)NCC[C@H](NC(=O)c2ccc(Nc3nc(NC4(c5ccc(Cl)cc5)CC4)nc(OCC(F)(F)F)n3)cc2)C(=O)OC)cc1 [Compound 3129],0.01 to 10 nM
2,O=C(Nc1nccs1)C(=O)N[C@H](CCNC(=O)c1ccc(Nc2nc(NC3(c4ccc(Cl)cc4)CC3)nc(OCC(F)(F)F)n2)cc1)C(=O)O [Compound 3496],10 to 1000 nM
3,CN(CCCN(C)C(=O)c1ccc(Nc2nc(NC3(c4ccc(Cl)cc4)CC3)nc(OCC(F)(F)F)n2)cc1)C(=O)C(=O)Nc1cc(F)cc(F)c1 [Compound 3427],0.01 to 10 nM
4,CC(C)(CNC(=O)C(=O)Nc1ccc(Cl)cc1C#N)CNC(=O)c1ccc(Nc2nc(NC3(c4ccc(Cl)cc4)CC3)nc(OCC(F)(F)F)n2)cc1 [Compound 3384],0.01 to 10 nM
5,COC(=O)[C@H](CNC(=O)C(=O)Nc1ccc(C2CCCCC2)cc1)NC(=O)c1ccc(Nc2nc(NC3(c4ccc(Cl)cc4)CC3)nc(OCC(F)(F)F)n2)cc1 [Compound 3079],0.01 to 10 nM
6,COC(=O)[C@H](CCNC(=O)C(=O)Nc1ccc(Cn2cncn2)cc1)NC(=O)c1ccc(Nc2nc(NC3(c4ccc(Cl)cc4)CC3)nc(OCC(F)(F)F)n2)cc1 [Compound 3299],0.01 to 10 nM
7,CC(O)N1CCN(c2ccc(NC(=O)C(=O)NC[C@H](NC(=O)c3ccc(Nc4nc(NC5(c6ccc(Cl)cc6)CC5)nc(OCC(F)(F)F)n4)cc3)C(=O)O)cc2)CC1 (stereo partly shown) [Compound 3271],0.01 to 10 nM
8,COC(=O)[C@H](CNC(=O)C(=O)Nc1ccc(-c2csc(C)n2)cc1)NC(=O)c1ccc(Nc2nc(NC3(c4ccc(Cl)cc4)CC3)nc(OCC(F)(F)F)n2)cc1 [Compound 3190],0.01 to 10 nM
9,CC(C)(CNC(=O)C(=O)Nc1ccc(CCCC(=O)O)cc1)CNC(=O)c1ccc(Nc2nc(NC3(c4ccc(Cl)cc4)CC3)nc(OCC(F)(F)F)n2)cc1 [Compound 3361],0.01 to 10 nM
10,O=C(NCC[C@H](NC(=O)c1ccc(Nc2nc(NC3(c4ccc(Cl)cc4)CC3)nc(OCC(F)(F)F)n2)cc1)C(=O)O)C(=O)Nc1ccc(OCC(F)(F)F)cc1 [Compound 3226],0.01 to 10 nM
11,CC(CNC(=O)C(=O)NCc1ccc(F)cc1)CNC(=O)c1ccc(Nc2nc(NC3(c4ccc(Cl)cc4)CC3)nc(OCC(F)(F)F)n2)cc1 (stereo not shown) [Compound 3346],0.01 to 10 nM
12,COc1ccc(NC(=O)C(=O)NCC(C)(C)CNC(=O)c2ccc(Nc3nc(NC4(c5ccc(Cl)cc5)CC4)nc(OCC(F)(F)F)n3)cc2)c(C(F)(F)F)c1 [Compound 3456],0.01 to 10 nM
13,COc1cccc(-c2ccc(NC(=O)C(=O)NCC(C)(C)CNC(=O)c3ccc(Nc4nc(NC5(c6ccc(Cl)cc6)CC5)nc(OCC(F)(F)F)n4)cc3F)cc2)c1 [Compound 3563],0.01 to 10 nM
14,COc1cc(OC)nc(-c2ccc(NC(=O)C(=O)NC[C@H](NC(=O)c3ccc(Nc4nc(NC5(c6ccc(Cl)cc6)CC5)nc(OCC(F)(F)F)n4)cc3)C(=O)O)cc2)n1 [Compound 3270],0.01 to 10 nM
15,Cc1ccc(NC(=O)C(=O)NC/C(=N/C(=O)c2ccc(Nc3nc(NC4(c5ccc(Cl)cc5)CC4)nc(OCC(F)(F)F)n3)cc2)C(=O)O)cc1 [Compound 3153],0.01 to 10 nM
16,O=C(NC/C(=N/C(=O)c1ccc(Nc2nc(NC3(c4ccc(Cl)cc4)CC3)nc(OCC(F)(F)F)n2)cc1)C(=O)O)C(=O)Nc1ccc(-n2cncn2)cc1 [Compound 3168],0.01 to 10 nM
17,COC(=O)/C(CCNC(=O)C(=O)Nc1ccc(Oc2ccccc2)nc1)=N\C(=O)c1ccc(Nc2nc(NC3(c4ccc(Cl)cc4)CC3)nc(OCC(F)(F)F)n2)cc1 [Compound 3593],0.01 to 10 nM
18,COCc1ccc(NC(=O)C(=O)NCC[C@H](NC(=O)c2ccc(Nc3nc(NC4(c5ccc(Cl)cc5)CC4)nc(OCC(F)(F)F)n3)cc2)C(=O)O)cc1 [Compound 3543],0.01 to 10 nM
19,O=C(NC[C@H](NC(=O)c1ccc(Nc2nc(NC3(c4ccc(Cl)cc4)CC3)nc(OCC(F)(F)F)n2)cc1)C(=O)O)C(=O)Nc1ccc(-c2ccno2)cc1 [Compound 3282],0.01 to 10 nM
20,CN(CCCN(C)C(=O)c1ccc(Nc2nc(NC3(c4ccc(Cl)cc4)CC3)nc(OCC(F)(F)F)n2)cc1)C(=O)C(=O)Nc1ccc(F)cc1F [Compound 3426],0.01 to 10 nM
21,COc1ccc(NC(=O)C(=O)NCC(C)(C)CNC(=O)c2ccc(Nc3nc(NC4(c5ccc(Cl)cc5)CC4)nc(OCC(F)(F)F)n3)cc2)c(OC)n1 [Compound 3077],0.01 to 10 nM
22,CC(C)(C)c1ccc(NC(=O)C(=O)NC[C@H](NC(=O)c2ccc(Nc3nc(NC4(c5ccc(Cl)cc5)CC4)nc(OCC(F)(F)F)n3)cc2)C(=O)O)cc1 [Compound 3294],0.01 to 10 nM
